Consider seven compounds from patent publication US20100041631A1 (priority 2006, published 2010).

For orientation: Km means the substrate concentration at which the rate is half of its maximum.

One assay deals with HsaCH37Rv (Mycobacterium tuberculosis, UniProt P9WNW7). The assay is classed as biochemical, M. tuberculosis H37Rv. Particulars: for Km: cell extract, pH 8.0, 25 °C.
A further assay deals with M tuberculosis HsaC (Mycobacterium tuberculosis, UniProt P9WNW7). In words: Inhibition of cloned M. tuberculosis HsaC, spectroscopic assay. The settings on record: in a manner consistent with oxidation of the active site Fe(II). It counts as biochemical.
The next assay deals with HsaDH37Rv (Mycobacterium tuberculosis, UniProt P9WNH5). The assay is classed as biochemical, M. tuberculosis H37Rv. Particulars: for Vmax / Km: substrate of HsaDH37Rv, standard error in parentheses; for Km: cell extract, pH 8.0, 25 °C.
In the next assay the test system is M. tuberculosis H37Rv. In words: Growth of H37Rv on cholesterol or 4-AD as growth substrate. The assay is classed as cell-based. The settings on record: for growth of H37Rv colonies on solid medium: substance as the sole organic substrate, no growth on control medium.
Assay [1] concerns M. bovis Bacillus Calmette-Guerin (BCG). The assay is classed as cell-based.
Setting [2] is: substrate of HsaCH37Rv, standard error in parentheses.

Read-outs that look alike come from different tables or passages of the source.

Chain of HsaCH37Rv (P9WNW7 whole entry, looked up): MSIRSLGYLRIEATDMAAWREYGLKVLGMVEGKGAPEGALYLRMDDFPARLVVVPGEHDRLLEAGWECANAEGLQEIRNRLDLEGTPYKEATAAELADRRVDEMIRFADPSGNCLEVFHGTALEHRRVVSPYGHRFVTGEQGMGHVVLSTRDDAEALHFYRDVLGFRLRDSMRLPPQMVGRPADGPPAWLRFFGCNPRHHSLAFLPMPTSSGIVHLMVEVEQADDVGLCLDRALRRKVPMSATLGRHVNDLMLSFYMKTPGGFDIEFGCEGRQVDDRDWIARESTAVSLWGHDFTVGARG
Chain of HsaDH37Rv (P9WNH5 whole entry, looked up): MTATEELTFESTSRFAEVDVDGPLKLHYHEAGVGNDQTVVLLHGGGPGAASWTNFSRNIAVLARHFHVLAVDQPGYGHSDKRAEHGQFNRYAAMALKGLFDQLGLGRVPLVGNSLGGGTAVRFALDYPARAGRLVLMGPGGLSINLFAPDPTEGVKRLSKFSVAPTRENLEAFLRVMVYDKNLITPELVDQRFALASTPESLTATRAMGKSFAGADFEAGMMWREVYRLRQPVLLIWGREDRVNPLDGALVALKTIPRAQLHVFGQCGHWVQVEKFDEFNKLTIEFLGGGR
Chain of M tuberculosis HsaC (P9WNW7 whole entry, looked up): as the sequence (P9WNW7 whole entry, looked up) above

For the compound `Cc1ccc(O)c(O)c1CC[C@@H]1C(=O)CC[C@]2(C)C(=O)CC[C@@H]12` [3,4-DHSA, 3,4-dihydroxy-9,10-seconandrost-1,3,5(10)-triene-9,17-dione], on HsaCH37Rv, the “apparent specificity of extradiol cleavage relative to DHB” value came out at 44 fold. For the same compound, the Vmax at HsaCH37Rv (substrate of HsaCH37Rv, […], standard error in parentheses) is 12 (4) μM^s−1. Further, at HsaCH37Rv (setting [2]), the Km is 0.9 µM.
Turning to `Oc1cccc(Cl)c1O` [3CC, 3-chlorocatechol], at M tuberculosis HsaC, the “inactivation of HsaC” value is recorded as “inactivated HsaC”.
For the compound `C/C(=C\C=C(/O)C(=O)O)C(=O)CC[C@@H]1C(=O)CC[C@]2(C)C(=O)CC[C@@H]12` [4,9-DSHA, 4,5-9,10-diseco-3-hydroxy-5,9,17-trioxoandrosta-1(10),2-diene-4-oic acid], the “apparent specificity of hydrolysis relative to HOPDA” value at HsaDH37Rv ([…], higher than for HOPDA) is on record as 34 fold. Further, on HsaDH37Rv ([…]), the Vmax is listed as 0.06 (0.02) μM^s−1. On HsaDH37Rv, the Km amounted to 4 µM.
Regarding `C[C@]12CCC(=O)C=C1CC[C@@H]1[C@@H]2CC[C@]2(C)C(=O)CC[C@@H]12` [4-AD, 4-androstene-3,17-dione], the “growth of H37Rv colonies on solid medium” value in the assay with M. tuberculosis H37Rv is “Colonies grew”.
In the case of `Oc1cccc(-c2ccccc2)c1O` [DHB], on HsaCH37Rv, the Vmax is given as 2.5 (0.4) μM^s−1. Also, the Michaelis constant (Km) at HsaCH37Rv (setting [2]) is 8.5 µM.
Consider `O=C(O)C(O)=CC=CC(=O)c1ccccc1` [HOPDA, 2-hydroxy-6-oxo-6-phenylpentadienoate], for which the Vmax at HsaDH37Rv ([…]) was 0.009 (0.003) μM^s−1. For the same compound, on HsaDH37Rv, the Michaelis-Menten constant (Km) amounted to 19 µM.
As for `CC(C)CCC[C@@H](C)[C@H]1CC[C@H]2[C@@H]3CC=C4C[C@@H](O)CC[C@]4(C)[C@H]3CC[C@]12C` [cholesterol], the “overall protein yield of BCG culture” value in assay [1] (medium supplemented with 0.25 mM cholesterol (0 mM: 22+/−7)) is 46 ± 9 µg/mL; in assay [1] (medium supplemented with 0.5 mM cholesterol (0 mM: 22+/−7)), 70 ± 4 µg/mL. Moreover, in the assay on M. tuberculosis H37Rv (phospholipid vesicles containing cholesterol versus vesicles containing no cholesterol), the “growth of H37Rv in liquid culture” value is reported as “grew faster”. Besides, the “growth of H37Rv colonies on solid medium” value in the assay with M. tuberculosis H37Rv is given as “Colonies grew”.
